Tests used:
JAK2 = JAK2 (Homo sapiens (Human), UniProt O60674); assay: JAK LanthaScreen Kinase Assay (TR-FRET), JAK2 in vitro enzyme assay; format: biochemical; conditions: 5 μM ATP
Method: (§1) The JAK LanthaScreen™ Kinase Assay (Invitrogen) is used to determine the ability of test compounds to inhibit JAK1, JAK2, and JAK3 kinase activity. These are TR-FRET assay formats that use long-lifetime terbium labeled antibody as the donor species and GFP-STAT1 as the acceptor species. Use the TR-FRET ratio to monitor JAK kinase activity where an increase in phosphorylation of the GFP-STAT1 results in an increase in the TR-FRET ratio. Perform the kinase reaction using a 12.5 μl reaction volume in shallow black 384-well Proxiplate®. Add reagents to obtain final reaction conditions of […], 1.76 mM Triton X-100, ATP (20.0 μM for JAK1 and JAK3 or 5 μM for JAK2) enzyme assays, 10.0 mM MgCl2, 1 mM EGTA and 0.01% Brij-35, […] GFP-STAT1, 14 nM JAK1 enzyme for JAK1, 1.0 nM for JAK2 or 2.5 nM for JAK3 enzyme assays, and 4% DMSO and serial dilutions of test compound (diluted 1:3 from 20,000 to 1 nM). Following ATP/GFP-STAT1 addition, centrifuge the assay plates for 1 minute at 1000 revolutions per minute (RPM). Allow the plates to incubate at RT for 60 minutes and then add 12.5 μl of a stopping buffer containing 20 mM EDTA, 2 nM Terbium-anti-phosphorylated Signal Transducers and Activators of Transcription [phosphorylation Tyrosine 701 amino acid] […] Use ACTIVITYBASE® 4.0 to fit the percent inhibition and ten-point compound concentration data to a four-parameter logistic equation.

JAK1 [1] = target: T1, JAK1 (Homo sapiens (Human), UniProt P23458); assay: AlphaScreen SureFire p-STAT3-(p-Tyr705)-IL6-TF-1-JAK1 cell-based assay; conditions: TF-1 cells, IL6 30 ng/mL, pSTAT3
Method: AlphaScreen SureFire Protocol p-STAT3-(p-Tyr705)-IL6-TF-1-JAK1 Cell-Based Assay
The JAK1 cell based assay described below is used to determine the JAK1 cellular potency of test compounds.
Cell preparation: Starve TF-1 cells in DMEM medium with 0.5% […] and 1× Pen/Strep at 37° C. Plate 100K cells per well in BD 96 well black plates with clear bottoms. Maintain the plates at RT for 30-60 minutes before incubating overnight at 37° C., and 5% CO2. Count cells using Vi-Cell counter, using a cell suspension at […] and plated 100 μL/well in […] Biocoat plates (Catalog #354640).
Test compound preparation and treatment: Prepare compounds at 1:3 serial dilutions in DMSO and further dilute into the medium. Test compounds in a range of 10 point concentrations from 20,000 to 1 nM. Add diluted compound to corresponding cell plates. Incubate the plates at 37° C. for 20 min. Add IL6 solution at the final concentration 30 ng/mL to corresponding cell plates and continue to incubate at 37° C. for 30 min. Remove media and add 50 μL 1× lysis buffer to each well.
pSTAT3 detection: Perform the following steps sequentially: make acceptor mix (activation buffer/reaction buffer/acceptor beads); transfer 4 μL lysate from 96 well plates to 384 well-Proxiplates; add 5 μL acceptor mix to 384 proxiplate plate(s) and seal plates with aluminum seal; shake 1-2 minutes on plate shaker; incubate plate at RT for 2 hr with gentle shaking; make donor mix (donor beads in dilution buffer); add 2 μL donor mix to assay plates; seal plates with aluminum seal; shake 1-2 minutes on plate shaker; incubate at RT for 2 hr with gentle shaking; read plate with Envision; protocol AlphaScreen Surefire 384.

JAK3 = JAK3 (Homo sapiens (Human), UniProt P52333); assay: JAK LanthaScreen Kinase Assay (TR-FRET), JAK3 in vitro enzyme assay; format: biochemical; conditions: 20.0 μM ATP
Method: as §1

JAK1 [2] = target: T1, JAK1; assay: JAK LanthaScreen Kinase Assay (TR-FRET), JAK1 in vitro enzyme assay; format: biochemical; conditions: 20.0 μM ATP
Method: as §1

T1 sequence (P23458 whole entry): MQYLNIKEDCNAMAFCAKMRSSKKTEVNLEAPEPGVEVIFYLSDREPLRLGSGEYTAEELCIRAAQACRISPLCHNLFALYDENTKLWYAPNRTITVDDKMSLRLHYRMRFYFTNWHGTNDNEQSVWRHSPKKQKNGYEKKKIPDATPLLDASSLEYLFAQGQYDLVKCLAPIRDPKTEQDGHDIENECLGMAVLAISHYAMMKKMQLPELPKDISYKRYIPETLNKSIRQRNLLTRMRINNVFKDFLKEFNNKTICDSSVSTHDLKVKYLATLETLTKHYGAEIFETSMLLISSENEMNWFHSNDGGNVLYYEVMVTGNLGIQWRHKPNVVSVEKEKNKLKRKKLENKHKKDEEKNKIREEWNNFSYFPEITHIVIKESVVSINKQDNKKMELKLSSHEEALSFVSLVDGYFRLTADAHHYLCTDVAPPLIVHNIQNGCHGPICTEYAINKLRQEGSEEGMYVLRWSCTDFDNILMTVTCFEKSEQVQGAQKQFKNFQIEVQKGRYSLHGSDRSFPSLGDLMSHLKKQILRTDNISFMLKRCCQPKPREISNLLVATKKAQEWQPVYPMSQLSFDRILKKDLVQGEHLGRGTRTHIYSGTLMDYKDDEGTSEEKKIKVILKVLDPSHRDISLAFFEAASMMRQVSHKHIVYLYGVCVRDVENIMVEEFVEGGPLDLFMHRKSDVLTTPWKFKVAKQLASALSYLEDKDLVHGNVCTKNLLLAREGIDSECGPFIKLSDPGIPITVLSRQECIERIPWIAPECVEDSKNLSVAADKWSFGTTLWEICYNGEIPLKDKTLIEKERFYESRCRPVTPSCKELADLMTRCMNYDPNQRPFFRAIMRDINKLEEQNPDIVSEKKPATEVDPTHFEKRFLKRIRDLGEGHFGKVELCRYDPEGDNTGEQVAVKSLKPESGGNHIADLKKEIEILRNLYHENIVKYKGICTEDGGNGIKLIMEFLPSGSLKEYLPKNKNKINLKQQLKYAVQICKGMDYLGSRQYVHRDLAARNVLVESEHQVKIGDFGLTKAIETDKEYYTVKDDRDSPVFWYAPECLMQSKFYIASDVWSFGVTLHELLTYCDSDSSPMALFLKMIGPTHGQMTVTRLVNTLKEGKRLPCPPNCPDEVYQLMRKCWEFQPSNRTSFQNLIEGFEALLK
JAK2, sequence (O60674 whole entry): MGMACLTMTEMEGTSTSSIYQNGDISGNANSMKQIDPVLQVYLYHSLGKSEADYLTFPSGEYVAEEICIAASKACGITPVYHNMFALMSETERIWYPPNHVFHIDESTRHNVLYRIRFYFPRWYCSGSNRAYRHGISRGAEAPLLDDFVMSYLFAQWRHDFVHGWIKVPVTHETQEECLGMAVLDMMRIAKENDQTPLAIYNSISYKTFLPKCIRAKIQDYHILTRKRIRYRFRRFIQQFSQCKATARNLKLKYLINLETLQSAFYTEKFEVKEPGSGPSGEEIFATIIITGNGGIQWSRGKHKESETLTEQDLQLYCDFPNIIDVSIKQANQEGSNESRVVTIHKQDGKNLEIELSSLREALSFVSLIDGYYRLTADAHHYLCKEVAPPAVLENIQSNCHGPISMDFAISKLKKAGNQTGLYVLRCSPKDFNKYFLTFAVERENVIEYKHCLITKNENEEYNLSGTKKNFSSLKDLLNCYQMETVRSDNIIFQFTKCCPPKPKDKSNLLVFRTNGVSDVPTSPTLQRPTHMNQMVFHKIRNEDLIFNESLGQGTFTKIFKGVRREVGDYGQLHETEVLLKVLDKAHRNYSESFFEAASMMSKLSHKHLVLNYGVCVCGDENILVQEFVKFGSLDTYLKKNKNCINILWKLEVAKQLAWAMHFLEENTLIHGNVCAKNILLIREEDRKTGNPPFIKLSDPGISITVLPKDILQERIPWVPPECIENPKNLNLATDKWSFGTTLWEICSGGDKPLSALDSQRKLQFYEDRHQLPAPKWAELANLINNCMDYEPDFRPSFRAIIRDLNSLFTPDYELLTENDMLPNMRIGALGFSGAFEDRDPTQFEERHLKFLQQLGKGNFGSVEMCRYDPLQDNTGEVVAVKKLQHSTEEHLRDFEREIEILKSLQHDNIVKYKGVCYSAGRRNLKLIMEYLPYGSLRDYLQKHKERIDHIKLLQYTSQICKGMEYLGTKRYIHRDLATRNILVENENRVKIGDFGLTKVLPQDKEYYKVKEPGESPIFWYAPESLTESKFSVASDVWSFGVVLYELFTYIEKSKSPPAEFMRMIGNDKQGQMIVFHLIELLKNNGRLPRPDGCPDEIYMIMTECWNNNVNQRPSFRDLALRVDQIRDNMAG
JAK3, sequence (P52333 whole entry): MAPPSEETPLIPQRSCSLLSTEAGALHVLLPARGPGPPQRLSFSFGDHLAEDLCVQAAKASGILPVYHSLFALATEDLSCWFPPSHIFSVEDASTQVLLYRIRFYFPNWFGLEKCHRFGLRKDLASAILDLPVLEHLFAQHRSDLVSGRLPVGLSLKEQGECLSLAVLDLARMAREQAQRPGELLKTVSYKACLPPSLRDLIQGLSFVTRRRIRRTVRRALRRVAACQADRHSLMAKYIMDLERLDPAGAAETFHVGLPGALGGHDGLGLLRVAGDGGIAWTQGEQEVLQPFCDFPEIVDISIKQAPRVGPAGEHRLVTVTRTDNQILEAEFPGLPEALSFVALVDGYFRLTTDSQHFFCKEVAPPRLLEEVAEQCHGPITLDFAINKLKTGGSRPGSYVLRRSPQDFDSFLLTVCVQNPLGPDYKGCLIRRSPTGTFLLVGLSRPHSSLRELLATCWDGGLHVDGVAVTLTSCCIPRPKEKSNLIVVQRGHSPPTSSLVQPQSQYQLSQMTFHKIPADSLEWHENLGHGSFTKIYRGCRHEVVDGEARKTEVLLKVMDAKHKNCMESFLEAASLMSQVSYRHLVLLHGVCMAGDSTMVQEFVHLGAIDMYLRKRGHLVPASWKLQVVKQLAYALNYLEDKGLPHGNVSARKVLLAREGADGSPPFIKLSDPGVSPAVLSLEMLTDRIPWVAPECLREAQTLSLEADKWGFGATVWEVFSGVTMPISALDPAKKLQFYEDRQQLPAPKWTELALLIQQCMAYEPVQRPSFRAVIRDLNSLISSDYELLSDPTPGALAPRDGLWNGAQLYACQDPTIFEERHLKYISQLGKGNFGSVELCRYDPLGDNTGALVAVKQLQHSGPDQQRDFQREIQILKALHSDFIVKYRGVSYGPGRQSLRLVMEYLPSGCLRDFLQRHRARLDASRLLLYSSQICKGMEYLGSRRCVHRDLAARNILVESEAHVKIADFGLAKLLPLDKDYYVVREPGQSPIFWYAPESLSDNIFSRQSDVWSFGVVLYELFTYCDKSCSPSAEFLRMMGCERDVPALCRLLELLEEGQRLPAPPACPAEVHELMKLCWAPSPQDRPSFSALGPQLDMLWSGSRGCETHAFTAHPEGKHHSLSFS

Row | SMILES | IC50 (JAK2) | IC50 (JAK1 [1]) | IC50 (JAK3) | IC50 (JAK1 [2])
1 | COCCCn1nc(Nc2cc(O[C@H]3CC[C@@H](NC[C@@H](O)C(F)(F)F)CC3)cc3c2ncn3C)cc1C [Example 1, (2R)-1,1,1-Trifluoro-3-({cis-4-[(4-{[1-(3-methoxypropyl)-5-methyl-1H-pyrazol-3-yl]amino}-1-methyl-1H-benzimidazol-6-yl)oxy]cyclohexyl}amino)propan-2-ol] | 1200 ± 550 nM | 0.154 ± 0.023 nM | 3720 ± 1300 nM | 3.25 ± 0.99 nM
2 | COCCn1nc(Nc2cc(O[C@H]3CC[C@@H](NC[C@@H](O)C(F)(F)F)CC3)cc3c2ncn3C)cc1C [Example 2, (2R)-1,1,1-Trifluoro-3-({cis-4-[(4-{[1-(2-methoxyethyl)-5-methyl-1H-pyrazol-3-yl]amino}-1-methyl-1H-benzimidazol-6-yl)oxy]cyclohexyl}amino)propan-2-ol] |  | 0.275 ± 0.102 nM |  | 
